# Test results reported in paper PMC8164609 (Environmental Science and Pollution Research International, 2021).
# Where “and” joins values, the source holds several entries; their conditions need not be identical. Equal entries are not always repeated.
# Columns and labels:
# estrogen receptor = molecular target: estrogen receptor; set-up: method as in Axon et al. [2012]; conditions: reporter gene construct in human ERα-positive MCF-7 cells; ref Axon et al. [2012]; read-out: EC50 concentration for estrogen receptor activation; cited from earlier work
# MCF-7 cells [1] = assay: In vitro micronucleus assay for cytokinesis block; format: cell-based, human; conditions: 24 h; for Micronuclei per 1000 binucleated cells, Replicates: single replicate values
# Experimental: The genotoxicity of EEDCs to MCF-7 cells was assessed by the in vitro micronucleus assay for cytokinesis block. MCF-7 cells were seeded at a density of 5×10^4/well in a 12-well plate in SF medium containing DMEM, 7% charcoal-stripped FBS and 4 mM L-glutamine. These cells were treated with test compounds or the positive control for 24 h. Then, cells were washed twice with PBS, treated with 2 μg/mL cytochalasin B, and incubated for 1.5–2 normal cell cycle lengths (~24 h for MCF-7 cells). Finally, cells were washed with PBS and fixed with 4% paraformaldehyde for 10–15 min (in PBS, pH 6.9). Before staining cells with 5% Giemsa stain for 20 min, plates were washed again with PBS and dried. The frequency of micronuclei per 1000 binucleated cells was counted for each well, and the ratio of micronucleus frequency in treated vs. control cells was defined as fold induction. Cells in mitosis were omitted.
# MCF-7 cells [2] = assay: LDH cytotoxicity test; conditions: 24 h, up to 10^−4 M
# Experimental: Cytotoxicity was assessed by lactate dehydrogenase (LDH) release. For LDH measurement, Pierce LDH Cytotoxicity Assay Kit (Thermo Scientific, Rockford, USA) was used. MCF-7 cells were seeded at 2.8×10^5 in a transparent 96-well plate, and corner cells of the plate were filled with PBS to prevent the edge effect. SF medium containing DMEM without phenol red, 1% charcoal-stripped FBS, and 4 mM L-glutamine were used for this assay. Plates were incubated for 24 h, and then the cells were treated with test compounds at concentrations ranging from 10^−14 to 10^−4 M or vehicle for another 24 h. On day 3, culture supernatant was collected in a separate 96-well plate, and the assay was continued according to the manufacturer’s instructions. Final absorbance was measured with the microplate reader at 490 and 680 nm. […] Vehicle control was 0.1% EtOH or DMSO. All the exposures were in triplicate, and the experiment was carried out twice.
# [3] = Estimated human serum concentration from dietary exposure; conditions: 7.3 mg/kg body weight/day as bolus, 2% absorbed, even distribution, maximum reduced by 50%
# Experimental: Tartrazine has been classified as a xenoestrogen that can bind to ERα in the MCF-7 cell line (Axon et al. [2012]). […] This raises the question whether tartrazine could create any estrogenic effect in humans at its prevailing serum concentrations. Based on the data published by EFSA, the 95th or 97.5th percentile exposure levels for human is 7.3 mg/kg body weight/day (EFSA [2009]).
structure (smiles),measurement,setting,value
O=C([O-])C1=NN(c2ccc(S(=O)(=O)[O-])cc2)C(=O)C1N=Nc1ccc(S(=O)(=O)[O-])cc1.[Na+].[Na+].[Na+] (stereo not drawn) [tartrazine],EC50,estrogen receptor,160 nM
same,Fold (micronucleus frequency treated vs. control),MCF-7 cells [1]; 10^−7 M,2.81
same,"Micronuclei per 1000 binucleated cells, Average",MCF-7 cells [1]; 10^−7 M,29 per 1000 binucleated cells
same,"Micronuclei per 1000 binucleated cells, Replicates",MCF-7 cells [1]; 10^−7 M,29 per 1000 binucleated cells and 31 per 1000 binucleated cells and 27 per 1000 binucleated cells
same,Fold (micronucleus frequency treated vs. control),MCF-7 cells [1]; 10^−8 M,2.10
same,"Micronuclei per 1000 binucleated cells, Average",MCF-7 cells [1]; 10^−8 M,21.67 per 1000 binucleated cells
same,"Micronuclei per 1000 binucleated cells, Replicates",MCF-7 cells [1]; 10^−8 M,21 per 1000 binucleated cells and 19 per 1000 binucleated cells and 25 per 1000 binucleated cells
same,maximum level of cytotoxicity (LDH release),MCF-7 cells [2],less than 2.5%
same,estimated serum concentration,[3],137 nM
